Data set [1] has as its target T1, AKT1 WT (Homo sapiens (Human), UniProt P31749). In words: Intact mass spectrometry, covalent complex formation and ARQ-092 competition. The following applies: protein 1 μM, compound 1.5 μM, 2 hrs at 37° C., NaBH4 reduction; for covalent complex formation with AKT1 WT protein: absence of competitor; for covalent complex formation with AKT1 WT protein in presence of competitor: with ARQ092 (50 μM). The data set is classed as binding. The method, then:
(§1) AKT1 WT or AKT1 E17K (1 μM) was treated with a compound from Table 1 (1.5 μM) for 2 hrs at 37° C., with and without ARQ092 (50 μM) competitor as a specificity control. Reversible imines were captured by reductive amination with 5 mM NaBH4 for 5 min. Reduction reactions were quenched by diluting the sample in equal volume acetonitrile+1% TFA, then analyzed by LCMS.
(§2) FIGS. 1 to 25 provide intact mass spectra for AKT1 WT protein and AKT1 E17K mutant protein after incubation with compounds of the present disclosure and subsequent borohydride reduction. […] Further, FIGS. 1 to 10, 12, and 14 to 25 each provide intact mass spectra following the incubation of an AKT1 protein with a compound of the present disclosure both in the absence of a competitor molecule (i.e., ARQ-092, a molecule known to bind to and inhibit the function of AKT1); and in the presence of a significant stoichiometric excess of a competitor molecule.
Target sequence in this assay (P31749 2-480): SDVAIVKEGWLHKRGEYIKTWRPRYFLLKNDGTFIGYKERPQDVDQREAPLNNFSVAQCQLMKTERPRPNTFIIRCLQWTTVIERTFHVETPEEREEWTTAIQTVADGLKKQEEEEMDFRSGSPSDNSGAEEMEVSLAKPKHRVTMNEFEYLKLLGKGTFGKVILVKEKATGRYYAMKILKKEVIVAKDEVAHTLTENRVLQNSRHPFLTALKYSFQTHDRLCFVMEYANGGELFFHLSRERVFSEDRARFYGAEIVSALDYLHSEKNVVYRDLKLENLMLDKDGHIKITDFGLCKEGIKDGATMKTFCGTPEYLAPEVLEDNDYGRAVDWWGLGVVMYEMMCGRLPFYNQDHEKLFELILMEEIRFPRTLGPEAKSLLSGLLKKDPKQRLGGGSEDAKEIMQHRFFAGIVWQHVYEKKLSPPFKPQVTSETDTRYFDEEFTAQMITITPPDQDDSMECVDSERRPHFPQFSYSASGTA

The next data set addresses AKT1 E17K mutant protein (Homo sapiens (Human), UniProt P31749, E17K). Described as above. The data set is classed as binding. The following applies: for covalent complex formation with AKT1 E17K mutant protein / covalent complex formation with AKT1 E17K mutant protein in presence of competitor: protein 1 μM, compound 1.5 μM, 2 hrs at 37° C., NaBH4 reduction; for covalent complex formation with AKT1 E17K mutant protein: absence of competitor; for covalent complex formation with AKT1 E17K mutant protein in presence of competitor: with ARQ092 (50 μM); for selectivity of complex formation, AKT1 E17K versus AKT1 WT: comparison of the spectra without competitor. The method, then:
as §1, §2

A further data set deals with AKT2 (Homo sapiens (Human), UniProt P31751). Put plainly: Live cell target engagement (NanoBRET) in HEK293 cells. The data set is classed as cell-based. The following applies: HEK293, 2 hours at 37° C.
A further data set deals with AKT1 E17K (Homo sapiens (Human), UniProt P31749, E17K). The description is as above. The data set is classed as cell-based. Conditions: for IC50: HEK293, 2 hours at 37° C.
Data set [2] has as its target T1, AKT1 WT. Described as above. In kind it is cell-based. The following applies: HEK293, 2 hours at 37° C.
Target sequence in this assay (P31749 whole entry): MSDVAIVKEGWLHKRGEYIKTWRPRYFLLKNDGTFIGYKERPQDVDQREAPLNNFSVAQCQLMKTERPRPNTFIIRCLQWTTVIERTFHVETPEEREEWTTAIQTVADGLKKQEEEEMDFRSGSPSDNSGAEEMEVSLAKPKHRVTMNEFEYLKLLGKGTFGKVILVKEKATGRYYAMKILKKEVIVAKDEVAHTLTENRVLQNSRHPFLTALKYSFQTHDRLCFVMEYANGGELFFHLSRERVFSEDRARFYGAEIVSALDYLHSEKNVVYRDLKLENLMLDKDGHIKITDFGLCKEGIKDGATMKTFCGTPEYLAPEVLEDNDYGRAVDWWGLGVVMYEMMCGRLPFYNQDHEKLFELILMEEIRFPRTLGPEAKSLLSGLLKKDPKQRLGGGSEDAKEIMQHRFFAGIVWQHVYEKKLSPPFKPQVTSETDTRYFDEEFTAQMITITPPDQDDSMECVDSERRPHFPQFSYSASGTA
The target in data set [3] is T1, AKT1 WT. In words: Dissociation rate by intact protein LCMS after ARQ092 chase. In kind it is binding. Conditions: compound 1.5 μM, 2 hours at 37° C., then ARQ092 50 μM. The method, then:
AKT1 WT or AKT1 E17K (1 μM) were treated with a compound of Table 1 (1.5 μM) for 2 hours at 37° C., then ARQ092 (50 μM final concentration) was added to prevent aldehyde-containing compound rebinding after initial dissociation. At various timepoints, aliquots were removed and quenched with 5 mM NaBH4 for 5 min to capture the reversible imine through reductive amination. Reduction reactions were quenched by diluting the sample in equal volume acetonitrile+1% TFA, then analyzed by LCMS. Deconvoluted monoisotopic intensities of unmodified vs. compound-modified mass peaks were compared.
Target sequence in this assay (P31749 2-480): as the sequence (P31749 2-480) above

Chain of AKT1 E17K mutant protein (P31749 2-480 E17K): as the sequence (P31749 2-480) above, with E16K counted along it
Chain of AKT2 (P31751 whole entry): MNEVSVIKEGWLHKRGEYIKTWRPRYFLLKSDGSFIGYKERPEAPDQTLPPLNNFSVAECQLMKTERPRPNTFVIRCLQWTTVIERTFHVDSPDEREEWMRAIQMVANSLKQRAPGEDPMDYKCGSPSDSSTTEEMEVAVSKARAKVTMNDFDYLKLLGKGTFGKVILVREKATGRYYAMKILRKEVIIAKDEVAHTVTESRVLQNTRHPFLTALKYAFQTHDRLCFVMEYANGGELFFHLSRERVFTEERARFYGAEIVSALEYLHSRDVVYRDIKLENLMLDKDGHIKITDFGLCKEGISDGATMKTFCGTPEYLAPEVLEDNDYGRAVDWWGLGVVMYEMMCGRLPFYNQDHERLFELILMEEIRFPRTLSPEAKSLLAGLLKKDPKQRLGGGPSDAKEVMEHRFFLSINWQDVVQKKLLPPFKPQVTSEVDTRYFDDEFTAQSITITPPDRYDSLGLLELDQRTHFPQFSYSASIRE
Chain of AKT1 E17K (P31749 whole entry E17K): as the sequence (P31749 whole entry) above, with E17K counted along it

For the compound `CC(=O)Nc1cc(CC(=O)NCc2ccc(-n3c(-c4cccnc4N)nc4cccnc43)cc2)ccc1C=O` [Compound 91, 2-(3-acetamido-4-formylphenyl)-N-(4-(2-(2-aminopyridin-3-yl)-3H-imidazo[4,5-b]pyridin-3-yl)benzyl)acetamide], on AKT1 WT [1], the “covalent complex formation with AKT1 WT protein” value is listed as “presence of a covalent complex” and the “covalent complex formation with AKT1 WT protein in presence of competitor” value was “Essentially no covalent complex formation”. Also, at AKT1 E17K mutant protein, the “covalent complex formation with AKT1 E17K mutant protein” value is “presence of a covalent complex” and the “covalent complex formation with AKT1 E17K mutant protein in presence of competitor” value was “Essentially no covalent complex formation”. Besides, the IC50 on AKT2 is above 500 nM. In addition, on AKT1 E17K, the “AKT1 E17K IC50: Selectivity vs AKT1 WT” value stood at 5, the “AKT1 E17K IC50: Selectivity vs AKT2” value is 120 and the IC50 is below 100 nM. On AKT1 WT [2], this compound gave an IC50 of 100 to 500 nM.
On to `Nc1ncccc1-c1nc2ccc(N3CCOCC3)nc2n1-c1ccc(C2(NC(=O)Cc3ccc(C=O)c(O)c3F)CC2)cc1` [Compound 140, N-(1-{4-[2-(2-aminopyridin-3-yl)-5-(morpholin-4-yl)imidazo[4,5-b]pyridin-3-yl]phenyl}cyclopropyl)-2-(2-fluoro-4-formyl-3-hydroxyphenyl)acetamide], for which, at AKT1 WT [1], the “covalent complex formation with AKT1 WT protein” value is recorded as “presence of a covalent complex” and the “covalent complex formation with AKT1 WT protein in presence of competitor” value was “Essentially no covalent complex formation”. Besides, at AKT1 E17K mutant protein, the “covalent complex formation with AKT1 E17K mutant protein” value was “significant presence of a covalent complex” and the “covalent complex formation with AKT1 E17K mutant protein in presence of competitor” value is “Essentially no covalent complex formation”. Further, on AKT2, the IC50 lay within 100 to 500 nM. For the same compound, on AKT1 E17K, the “AKT1 E17K IC50: Selectivity vs AKT1 WT” value was 1.4, the “AKT1 E17K IC50: Selectivity vs AKT2” value is listed as 10 and the IC50 is below 100 nM. For the same compound, the IC50 against AKT1 WT [2] is below 100 nM.
As for `Nc1ncccc1-c1nc2ccc(N3CCOCC3)nc2n1-c1ccc(CNCCc2ccc(C=O)c(O)c2)cc1` [Compound 107, 4-(2-((4-(2-(2-aminopyridin-3-yl)-5-morpholino-3H-imidazo[4,5-b]pyridin-3-yl)benzyl)amino)ethyl)-2-hydroxybenzaldehyde], at AKT1 WT [1], the “covalent complex formation with AKT1 WT protein” value is recorded as “only peaks corresponding to unmodified WT protein” and the “covalent complex formation with AKT1 WT protein in presence of competitor” value is “only peaks corresponding to unmodified WT protein”. Also, on AKT1 E17K mutant protein, the “covalent complex formation with AKT1 E17K mutant protein” value is listed as “only peaks corresponding to unmodified mutant protein” and the “covalent complex formation with AKT1 E17K mutant protein in presence of competitor” value was “only peaks corresponding to unmodified mutant protein”. The compound also yielded an IC50 against AKT2 above 500 nM. Besides, at AKT1 E17K, the “AKT1 E17K IC50: Selectivity vs AKT1 WT” value is on record as 3.5, the “AKT1 E17K IC50: Selectivity vs AKT2” value amounted to 76 and the IC50 is below 100 nM. On AKT1 WT [2], this compound had an IC50 of 100 to 500 nM.
Consider `Nc1ncccc1-c1nc2ccc(N3CCOCC3)nc2n1-c1ccc(CNC(=O)Cc2ccc(C=O)c(O)c2)cc1` [Compound 49, N-({4-[2-(2-aminopyridin-3-yl)-5-(morpholin-4-yl)imidazo[4,5-b]pyridin-3-yl]phenyl}methyl)-2-(4-formyl-3-hydroxyphenyl)acetamide], for which, at AKT1 WT [1], the “covalent complex formation with AKT1 WT protein” value is on record as “significant presence of covalent complex” and the “covalent complex formation with AKT1 WT protein in presence of competitor” value is “Essentially no covalent complex formation”. At AKT1 E17K mutant protein, the “covalent complex formation with AKT1 E17K mutant protein” value is listed as “significant presence of a covalent complex” and the “covalent complex formation with AKT1 E17K mutant protein in presence of competitor” value was “Essentially little to no covalent complex formation”. On AKT2, this compound yielded an IC50 above 500 nM. In addition, on AKT1 E17K, the “AKT1 E17K IC50: Selectivity vs AKT1 WT” value is listed as 20, the “AKT1 E17K IC50: Selectivity vs AKT2” value worked out at 1500 and the IC50 was below 100 nM. Besides, the IC50 against AKT1 WT [2] is below 100 nM.
For `Nc1ncccc1-c1nc2ccc(-c3ccccc3)nc2n1-c1ccc(CNC(=O)c2cc(Cl)c(O)c(C=O)c2)cc1` [Compound 52, N-(4-(2-(2-aminopyridin-3-yl)-5-phenyl-3H-imidazo[4,5-b]pyridin-3-yl)benzyl)-3-chloro-5-formyl-4-hydroxybenzamide], on AKT1 WT [1], the “covalent complex formation with AKT1 WT protein” value is “only peaks corresponding to unmodified WT protein” and the “covalent complex formation with AKT1 WT protein in presence of competitor” value is recorded as “only peaks corresponding to unmodified WT protein”. On AKT1 E17K mutant protein, the “selectivity of complex formation, AKT1 E17K versus AKT1 WT” value is “selective for complex formation with AKT1 E17K”; the “covalent complex formation with AKT1 E17K mutant protein” value is “presence of a covalent complex”; the “covalent complex formation with AKT1 E17K mutant protein in presence of competitor” value is “Essentially no covalent complex formation”. The compound also yielded an IC50 against AKT2 of 100 to 500 nM. Also, at AKT1 E17K, the “AKT1 E17K IC50: Selectivity vs AKT1 WT” value was found to be 1.2, the “AKT1 E17K IC50: Selectivity vs AKT2” value was found to be 11 and the IC50 was below 100 nM. In addition, on AKT1 WT [2], the IC50 was below 100 nM.
Regarding `Nc1ncccc1-c1nc2ccc(-c3ccccc3)nc2n1-c1ccc(CNC(=O)Cc2ccc(C=O)c(O)c2)cc1` [Compound 132, N-(4-(2-(2-aminopyridin-3-yl)-5-phenyl-3H-imidazo[4,5-b]pyridin-3-yl)benzyl)-2-(4-formyl-3-hydroxyphenyl)acetamide], at AKT1 WT [1], the “covalent complex formation with AKT1 WT protein” value was “presence of covalent complex” and the “covalent complex formation with AKT1 WT protein in presence of competitor” value was “Essentially no covalent complex formation”. At AKT1 E17K mutant protein, the “covalent complex formation with AKT1 E17K mutant protein” value is given as “presence of covalent complex” and the “covalent complex formation with AKT1 E17K mutant protein in presence of competitor” value is “Essentially no covalent complex formation”. Further, at AKT2, the IC50 was in the range of 100 to 500 nM. Further, on AKT1 E17K, the “AKT1 E17K IC50: Selectivity vs AKT1 WT” value amounted to 3.2, the “AKT1 E17K IC50: Selectivity vs AKT2” value is 23 and the IC50 is below 100 nM. This compound had an IC50 on AKT1 WT [2] below 100 nM.
Consider `Cc1ccc2nc(-c3cccnc3N)n(-c3ccc(C4(NC(=O)Cc5ccc(C=O)c(O)c5F)CC4)cc3)c2n1` [Compound 139, N-(1-{4-[2-(2-aminopyridin-3-yl)-5-methylimidazo[4,5-b]pyridin-3-yl]phenyl}cyclopropyl)-2-(2-fluoro-4-formyl-3-hydroxyphenyl)acetamide], for which, on AKT1 WT [1], the “covalent complex formation with AKT1 WT protein” value is “presence of a covalent complex” and the “covalent complex formation with AKT1 WT protein in presence of competitor” value is recorded as “Essentially no covalent complex formation”. For the same compound, at AKT1 E17K mutant protein, the “selectivity of complex formation, AKT1 E17K versus AKT1 WT” value is reported as “selective for complex formation with AKT1 E17K”; the “covalent complex formation with AKT1 E17K mutant protein” value was “significant presence of a covalent complex”; the “covalent complex formation with AKT1 E17K mutant protein in presence of competitor” value is listed as “lower level of covalent complex formation”. The IC50 on AKT2 lay within 100 to 500 nM. Besides, on AKT1 E17K, the “AKT1 E17K IC50: Selectivity vs AKT1 WT” value is reported as 1.7, the “AKT1 E17K IC50: Selectivity vs AKT2” value is recorded as 20 and the IC50 is below 100 nM. The “AKT1 (WT) t1/2” value on AKT1 WT [3] stood at 47.8 min. The compound further gave an IC50 at AKT1 WT [2] below 100 nM.
